≈ marks a conversion by molar mass, not a printed value. Calls of active or inactive are those of the source.

The text below walks through data of ChEMBL document CHEMBL3232991, “New polyfunctional imidazo[4,5-C]pyridine motifs: synthesis, crystal studies, docking studies and antimicrobial evaluation” (Eur J Med Chem, 2014).

For experiment [1], the system named is Candida albicans. Description: Antifungal activity against Candida albicans MTCC 183 assessed as diameter of growth inhibition zone at 10 ug/ml after 4 days by agar disc diffusion method. It counts as functional. A general note: In agar diffusion tests the substance spreads into inoculated agar from a disc or well.
Experiment [2] concerns Bacillus cereus. Description: Antibacterial activity against Bacillus cereus NCIM 2155 assessed as diameter of growth inhibition zone at 10 ug/ml after 20 hrs by agar disc diffusion method. The format is functional.
The test system of experiment [3] is Saccharomyces cerevisiae. Description: Antifungal activity against Saccharomyces cerevisiae NCIM 3044 assessed as diameter of growth inhibition zone at 10 ug/ml after 4 days by agar disc diffusion method. The format is functional.
Experiment [4] has as its system Staphylococcus aureus. Description: Antibacterial activity against Staphylococcus aureus MTCC 4102 assessed as diameter of growth inhibition zone at 10 ug/ml after 20 hrs by agar disc diffusion method. It counts as functional.
Experiment [5] has as its system Escherichia coli. Description: Antibacterial activity against Escherichia coli NCIM 2931 assessed as diameter of growth inhibition zone at 10 ug/ml after 20 hrs by agar disc diffusion method. It counts as functional.
The subject of experiment [6] is Pseudomonas aeruginosa. In words: Antibacterial activity against Pseudomonas aeruginosa MTCC 4727 assessed as diameter of growth inhibition zone at 10 ug/ml after 20 hrs by agar disc diffusion method. The format is functional.
Experiment [7] concerns Candida albicans. In words: Antifungal activity against Candida albicans MTCC 183 assessed as diameter of growth inhibition zone at 500 ug/ml after 4 days by agar disc diffusion method. It counts as functional.
Experiment [8] relates to Saccharomyces cerevisiae. In words: Antifungal activity against Saccharomyces cerevisiae NCIM 3044 assessed as diameter of growth inhibition zone at 1000 ug/ml after 4 days by agar disc diffusion method. It counts as functional.
The test system of experiment [9] is Saccharomyces cerevisiae. Description: Antifungal activity against Saccharomyces cerevisiae NCIM 3044 assessed as diameter of growth inhibition zone at 500 ug/ml after 4 days by agar disc diffusion method. The format is functional.
The subject of experiment [10] is Staphylococcus aureus. In words: Antibacterial activity against Staphylococcus aureus MTCC 4102 assessed as diameter of growth inhibition zone at 500 ug/ml after 20 hrs by agar disc diffusion method. It counts as functional.
The test system of experiment [11] is Candida albicans. In words: Antifungal activity against Candida albicans MTCC 183 assessed as diameter of growth inhibition zone at 1000 ug/ml after 4 days by agar disc diffusion method. It counts as functional.
Experiment [12] has as its system Pseudomonas aeruginosa. In words: Antibacterial activity against Pseudomonas aeruginosa MTCC 4727 assessed as diameter of growth inhibition zone at 1000 ug/ml after 20 hrs by agar disc diffusion method. The format is functional.
Experiment [13] relates to Escherichia coli. Description: Antibacterial activity against Escherichia coli NCIM 2931 assessed as diameter of growth inhibition zone at 500 ug/ml after 20 hrs by agar disc diffusion method. As to conditions: NCIM 2931, 20 h, read-out: DIZ. The format is functional.
The test system of experiment [14] is Escherichia coli. In words: Antibacterial activity against Escherichia coli NCIM 2931 assessed as diameter of growth inhibition zone at 1000 ug/ml after 20 hrs by agar disc diffusion method. As to conditions: NCIM 2931, 20 h, read-out: DIZ. It counts as functional.
In experiment [15] the test system is Bacillus cereus. In words: Antibacterial activity against Bacillus cereus NCIM 2155 assessed as diameter of growth inhibition zone at 500 ug/ml after 20 hrs by agar disc diffusion method. It counts as functional.
Experiment [16] has as its system Staphylococcus aureus. Description: Antibacterial activity against Staphylococcus aureus MTCC 4102 assessed as diameter of growth inhibition zone at 1000 ug/ml after 20 hrs by agar disc diffusion method. It counts as functional.
In experiment [17] the test system is Pseudomonas aeruginosa. In words: Antibacterial activity against Pseudomonas aeruginosa MTCC 4727 assessed as diameter of growth inhibition zone at 500 ug/ml after 20 hrs by agar disc diffusion method. The format is functional.
The subject of experiment [18] is Bacillus cereus. Description: Antibacterial activity against Bacillus cereus NCIM 2155 assessed as diameter of growth inhibition zone at 1000 ug/ml after 20 hrs by agar disc diffusion method. It counts as functional.
Experiment [19] relates to Staphylococcus aureus. Description: Antibacterial activity against Staphylococcus aureus MTCC 4102 assessed as growth inhibition after 24 hrs by broth microdilution method. It counts as functional, organism-based. The note with it: MTCC 4102, 24 h. In general terms: In broth dilution the organism is exposed to a series of concentrations in liquid medium.
Experiment [20] has as its system Escherichia coli. In words: Antibacterial activity against Escherichia coli NCIM 2931 assessed as growth inhibition after 24 hrs by broth microdilution method. As to conditions: NCIM 2931, 24 h. It counts as functional, organism-based.
The subject of experiment [21] is Saccharomyces cerevisiae. In words: Antifungal activity against Saccharomyces cerevisiae NCIM 3044 assessed as growth inhibition after 48 hrs by broth microdilution method. The format is functional, organism-based. As to conditions: NCIM 3044, 48 h.

For the molecule `OC(Cn1cncn1)(Cn1cncn1)c1ccc(F)cc1F` [FLUCONAZOLE], the zone of inhibition at 10 µg/mL in the experiment with Candida albicans [1] (MTCC 183, 96 h, read-out: DIZ) came to 25 mm; in the experiment with Saccharomyces cerevisiae [3] (NCIM 3044, 96 h, read-out: DIZ), 24 mm. Further, the “diameter of the inhibition zone (DIZ)” value with Bacillus cereus [2], in the experiment with Staphylococcus aureus [4], in the experiment on Escherichia coli [5] and with Pseudomonas aeruginosa [6] was “inactive” each time.
For the molecule `COc1cc(-c2cnc(N3CCC(C#N)CC3)c3nc(Cc4ccc(Cl)cc4Cl)[nH]c23)ccc1F`, the “diameter of the inhibition zone (DIZ)” value in the experiment with Candida albicans [7], in the experiment on Saccharomyces cerevisiae [8], in the experiment with Saccharomyces cerevisiae [9], with Candida albicans [11], in the experiment on Bacillus cereus [15] and in the experiment on Bacillus cereus [18] was “inactive” in each case. The zone of inhibition at 500 µg/mL in the experiment on Staphylococcus aureus [10] (MTCC 4102, 20 h, read-out: DIZ) was 10.5 mm; in the experiment on Escherichia coli [13], 4.1 mm; in the experiment on Pseudomonas aeruginosa [17] (MTCC 4727, 20 h, read-out: DIZ), 3.5 mm. For the same molecule, the zone of inhibition at 1000 µg/mL in the experiment on Pseudomonas aeruginosa [12] (MTCC 4727, 20 h, read-out: DIZ) was 8 mm; in the experiment with Escherichia coli [14] it was 9 mm; in the experiment with Staphylococcus aureus [16] (MTCC 4102, 20 h, read-out: DIZ) it was 23 mm. In addition, the IC50 with Staphylococcus aureus [19] is 100 µg/mL (≈ 196 µM). Besides, in the experiment with Staphylococcus aureus [19], the MIC is 200 µg/mL (≈ 392 µM).
Regarding `N#CC1CCCN(c2ncc(-c3cccc(F)c3)c3[nH]c(-c4ccco4)nc23)C1` (configuration not stated), the “diameter of the inhibition zone (DIZ)” value in the experiment on Candida albicans [7], in the experiment with Staphylococcus aureus [10], in the experiment on Candida albicans [11], with Pseudomonas aeruginosa [12], in the experiment on Bacillus cereus [15] and in the experiment with Staphylococcus aureus [16] was “inactive” each time. The “diameter of the inhibition zone (DIZ)” value in the experiment on Pseudomonas aeruginosa [17] and in the experiment on Bacillus cereus [18] was “inactive” throughout. For the same molecule, the zone of inhibition at 1000 µg/mL in the experiment with Saccharomyces cerevisiae [8] (NCIM 3044, 96 h, read-out: DIZ) is 15 mm; in the experiment on Escherichia coli [14], 16 mm. Further, the zone of inhibition at 500 µg/mL is 6.9 mm in the experiment with Saccharomyces cerevisiae [9] (NCIM 3044, 96 h, read-out: DIZ) and 8 mm in the experiment on Escherichia coli [13]. The values for the IC50 in the experiment with Escherichia coli [20] and in the experiment with Saccharomyces cerevisiae [21] were 74.5 µg/mL (≈ 192 µM) and 98.8 µg/mL (≈ 255 µM), respectively. Further, the results for the minimum inhibitory concentration (MIC) in the experiment on Escherichia coli [20] and in the experiment with Saccharomyces cerevisiae [21] were 198 µg/mL (≈ 510 µM) and 296 µg/mL (≈ 765 µM), respectively.
Take `CN[C@@H]1[C@H](O[C@H]2[C@H](O[C@H]3[C@H](O)[C@@H](O)[C@H](N=C(N)N)[C@@H](O)[C@@H]3N=C(N)N)O[C@@H](C)[C@]2(O)C=O)O[C@@H](CO)[C@H](O)[C@H]1O` [STREPTOMYCIN]: the “diameter of the inhibition zone (DIZ)” value with Candida albicans [1] and with Saccharomyces cerevisiae [3] was “inactive” in each case. Further, the zone of inhibition at 10 µg/mL in the experiment on Bacillus cereus [2] (NCIM 2155, 20 h, read-out: DIZ) was determined as 20.2 mm; in the experiment on Staphylococcus aureus [4] (MTCC 4102, 20 h, read-out: DIZ), 23.8 mm; in the experiment with Escherichia coli [5] (NCIM 2931, 20 h, read-out: DIZ), 21.4 mm; with Pseudomonas aeruginosa [6] (MTCC 4727, 20 h, read-out: DIZ), 20.9 mm.

By IC50 is commonly meant the concentration that gives 50% inhibition. For orientation: MIC means the smallest concentration in the dilution series that meets the test's criterion for growth inhibition.
